Experimental data from the supplement of paper PMC11061612.

Legend:
Experiment in all cases: combination Emax (second highest fraction inhibited in the dose matrix, 72 h); higher = more inhibition; extreme values may be limits of the assay
[1] = test system: SW48 (Colorectal Carcinoma)
Method in brief: (§1)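 Bliss excess equals the observed combination effect minus the expected value EA + EB − EA·EB, where EA and EB are the effects of each agent alone. Combination Emax is the second-highest inhibition within the matrix. Inhibition was scaled from CellTiter-Glo 2.0 luminescence, with 0 set by vehicle wells and 1 by blank wells, after 72 hours of two-drug dosing of cells plated in 1536-well plates.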

Saos-2 (Osteosarcoma) = test system: Saos-2 (Osteosarcoma)
Method in brief: as §1

[2] = test system: HCT-116 (Colorectal Carcinoma)
Method in brief: as §1

[3] = test system: SLVL (B-Cell Non-Hodgkin's Lymphoma)
Method in brief: as §1

[4] = test system: SNU-61 (Colorectal Carcinoma)
Method in brief: as §1

A172 (Glioblastoma) = test system: A172 (Glioblastoma)
Method in brief: as §1

[5] = test system: NOMO-1 (Acute Myeloid Leukemia)
Method in brief: as §1

[6] = test system: ETK-1 (Biliary Tract Carcinoma)
Method in brief: as §1

[7] = test system: U-118-MG (Low Grade Glioma)
Method in brief: as §1

[8] = test system: P31-FUJ (Acute Myeloid Leukemia)
Method in brief: as §1

[9] = test system: MEG-01 (Chronic Myelogenous Leukemia)
Method in brief: as §1

[10] = test system: BICR78 (Oral Cavity Carcinoma)
Method in brief: as §1

MCF7 (Breast Carcinoma) = test system: MCF7 (Breast Carcinoma)
Method in brief: as §1

[11] = test system: TYK-nu (Ovarian Carcinoma)
Method in brief: as §1

[12] = test system: RCC10RGB (Kidney Carcinoma)
Method in brief: as §1

[13] = test system: 647-V (Bladder Carcinoma)
Method in brief: as §1

[14] = test system: WSU-DLCL2 (B-Cell Non-Hodgkin's Lymphoma)
Method in brief: as §1

HCC38 (Breast Carcinoma) = test system: HCC38 (Breast Carcinoma)
Method in brief: as §1

[15] = test system: SKN-3 (Head and Neck Carcinoma)
Method in brief: as §1

[16] = test system: SK-LMS-1 (Other Solid Carcinomas)
Method in brief: as §1

Row | Structure (SMILES) | combination Emax [1] | combination Emax (Saos-2 (Osteosarcoma)) | combination Emax [2] | combination Emax [3] | combination Emax [4] | combination Emax (A172 (Glioblastoma)) | combination Emax [5] | combination Emax [6] | combination Emax [7] | combination Emax [8] | combination Emax [9] | combination Emax [10] | combination Emax (MCF7 (Breast Carcinoma)) | combination Emax [11] | combination Emax [12] | combination Emax [13] | combination Emax [14] | combination Emax (HCC38 (Breast Carcinoma)) | combination Emax [15] | combination Emax [16]
1 | COc1nnc2ccc(N3CCC(c4ccc(OCCN5CCN(C)C(=O)[C@H]5C)cc4)CC3)nn12 [AZD5153] + C[C@@H]1COCCN1C2=NC(=NC(=C2)C3(CC3)[S@](=N)(=O)C)C4=C5C=CNC5=NC=C4 [AZD6738] (first compound max 1 µM, 7x7, partner max 10 µM) | 0.752 | 0.843 | 0.88 | 0.689 | 0.544 | 0.739 | 1 | 0.717 | 0.611 | 0.987 | 0.966 | 0.636 | 0.747 | 0.803 | 0.572 | 0.789 | 1 | 0.486 | 0.634 | 0.61
2 | COc1nnc2ccc(N3CCC(c4ccc(OCCN5CCN(C)C(=O)[C@H]5C)cc4)CC3)nn12 [AZD5153] + Cc1c2c(nn1C)CSCc1cc(n(C)n1)CSc1cc(c3ccccc3c1)OCCCc1c(C(=O)O)n(C)c3c-2c(Cl)ccc13 [AZD5991] (first compound max 1 µM, 7x7, partner max 1 µM) | 0.711 | 0.835 | 0.716 | 0.715 | 0.452 | 0.485 | 1 | 0.513 | 0.352 | 0.995 | 0.961 | 0.501 | 0.769 | 0.646 | 0.531 | 0.587 | 1 | 0.479 | 0.6 | 0.5
3 | COc1nnc2ccc(N3CCC(c4ccc(OCCN5CCN(C)C(=O)[C@H]5C)cc4)CC3)nn12 [AZD5153] + Cn1cnc2c(F)c(Nc3ccc(Br)cc3Cl)c(C(=O)NOCCO)cc21 [Selumetinib] (first compound max 1 µM, 7x7, partner max 10 µM) | 0.786 | 0.516 | 0.866 | 0.738 | 0.69 | 0.511 | 1 | 0.463 | 0.362 | 0.985 | 0.988 | 0.548 | 0.704 | 0.755 | 0.574 | 0.61 | 0.963 | 0.342 | 0.531 | 0.666
4 | Cc1c2c(nn1C)CSCc1cc(n(C)n1)CSc1cc(c3ccccc3c1)OCCCc1c(C(=O)O)n(C)c3c-2c(Cl)ccc13 [AZD5991] + C1CN(CCC1(C(=O)N[C@@H](CCO)C2=CC=C(C=C2)Cl)N)C3=NC=NC4=C3C=CN4 [Capivasertib] (first compound max 1 µM, 7x7, partner max 3 µM) | 0.28 | 0.52 | 0.24 | 0.567 | 0.117 | 0.234 | 0.909 | 0.254 | 0.289 | 0.99 | 0.361 | 0.266 | 0.687 | 0.36 | 0.298 | 0.676 | 1 | 0.506 | 0.121 | 0.302
5 | Cc1c2c(nn1C)CSCc1cc(n(C)n1)CSc1cc(c3ccccc3c1)OCCCc1c(C(=O)O)n(C)c3c-2c(Cl)ccc13 [AZD5991] + C=CCn1c(=O)c2cnc(Nc3ccc(N4CCN(C)CC4)cc3)nc2n1-c1cccc(C(C)(C)O)n1 [AZD1775] (first compound max 1 µM, partner max 1 µM) | 0.402 | 0.801 | 0.641 | 0.937 | 0.49 | 0.609 | 0.989 | 0.59 | 0.339 | 0.99 | 0.927 | 0.381 | 0.652 | 0.761 | 0.541 | 0.978 | 1 | 0.657 | 0.696 | 0.431
6 | Cc1c2c(nn1C)CSCc1cc(n(C)n1)CSc1cc(c3ccccc3c1)OCCCc1c(C(=O)O)n(C)c3c-2c(Cl)ccc13 [AZD5991] + CC1(C)CCC(CN2CCN(c3ccc(C(=O)NS(=O)(=O)c4ccc(NCC5CCOCC5)c([N+](=O)[O-])c4)c(Oc4cnc5[nH]ccc5c4)c3)CC2)=C(c2ccc(Cl)cc2)C1 [Venetoclax] (first compound max 1 µM, 7x7, partner max 1 µM) | 0.339 | 0.534 | 0.163 | 0.777 | 0.155 | 0.268 | 0.981 | 0.152 | 0.196 | 0.998 | 0.837 | 0.18 | 0.745 | 0.233 | 0.221 | 0.618 | 1 | 0.463 | 0.15 | 0.115
